Literature values as cited in patent US20190352602A1, “Methods and Compositions for Producing Germ Cells from Bone Marrow Derived Germline Stem Cells” (The General Hospital Corporation, priority 2004, published 2019).

Tested on: irradiated testicular tissue
Conditions: irradiated testicular tissue treated with S1P vs untreated tissues

For `CCCCCCCCCCCCC/C=C/[C@@H](O)[C@@H](N)COP(=O)(O)O` [S1P, Sphingosine-1-phosphate], the “numbers of primary spermatocytes and spermatogonia” value is given as “higher than untreated tissues”.
